The values that follow come from patent US7687623B2, “Pyrrolobenzodiazepines and heterocyclic carboxamide derivatives as follicle stimulating hormone receptor (FSH-R) antagonists” (Wyeth LLC, priority 2005, dated 2010).

The target of one data set is T1, hFSH-R (Homo sapiens, UniProt P23945).
T1 construct: expressed in transfected cells; host or cells: CHO-3D2 cells
T1 sequence (P23945 18-695): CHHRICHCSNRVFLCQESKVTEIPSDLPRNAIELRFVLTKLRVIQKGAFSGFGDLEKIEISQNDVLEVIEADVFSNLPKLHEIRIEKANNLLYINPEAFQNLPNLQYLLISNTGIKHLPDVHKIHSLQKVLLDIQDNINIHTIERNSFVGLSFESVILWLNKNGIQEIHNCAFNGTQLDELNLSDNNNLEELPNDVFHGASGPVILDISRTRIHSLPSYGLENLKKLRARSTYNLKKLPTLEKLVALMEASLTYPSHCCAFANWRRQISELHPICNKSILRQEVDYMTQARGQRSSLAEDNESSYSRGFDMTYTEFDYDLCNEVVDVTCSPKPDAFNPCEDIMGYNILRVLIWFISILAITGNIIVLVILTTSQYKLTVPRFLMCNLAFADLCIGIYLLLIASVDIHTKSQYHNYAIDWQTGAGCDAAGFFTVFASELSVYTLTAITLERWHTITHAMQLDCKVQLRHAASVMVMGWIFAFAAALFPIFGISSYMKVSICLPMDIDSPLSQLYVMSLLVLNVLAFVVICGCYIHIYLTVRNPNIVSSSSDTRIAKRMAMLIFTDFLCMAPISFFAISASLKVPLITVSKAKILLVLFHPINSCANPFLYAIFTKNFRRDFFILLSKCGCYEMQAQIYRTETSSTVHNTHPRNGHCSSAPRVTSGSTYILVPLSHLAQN
The data set can be described thus: cAMP accumulation (RIA) in CHO-3D2 cells (hFSH-R), hFSH-induced. The conditions noted are these: for Emax: read-out: cAMP % Efficacy. The data set is classed as cell-based. How it is done:
COMPOUND VEHICLE: Stock compounds were solubilized in 100% DMSO (Sigma Chemical Co.) at a concentration of 30 mM. The compounds were subsequently diluted in sterile assay medium consisting of Opti-MEM® I (Life Technologies) with 0.1% (w/v) BSA (Sigma), prior to use in the bio-assay. The final concentration of DMSO in the assay is 0.1%.
Plated cells are then incubated at 37° C. in a humidified 5% CO2/95% air, atmosphere.
On the day of the assay, cells were washed three times with 100 μl/well of assay medium consisting of Opti-MEM® I (Life Technologies) with 0.1% (w/v) BSA (Sigma). Medium was removed and 100 μl of assay medium was added to each well. Plates were incubated for an additional 30 minutes at 37° C. […] Reactions were terminated by the addition of 50 μl of 0.2N hydrochloric acid to each well and cAMP-accumulation was measured by radioimmunoassay (RIA) using a commercially available kit (Amersham).
All test compounds were evaluated in a dose-response paradigm ranging from about 0.01 to about 30 μM. Controls and test compounds were evaluated in quadruplicate in a 96-well format.
Along with the test compounds, FSH was also run as a positive control in the agonist mode using concentrations ranging from about 0.1-1000 ng/ml.
Data were analyzed by one-way analysis of variance and significant differences between treatments and control determined by Least Significant Difference test.
Test compounds were compared to the effect of purified human FSH.

The target in a further data set is T2, human FSH receptor (Homo sapiens, UniProt P23945).
T2 construct: host or cells: CHO-K1 (CHO FSH-R 6CRE-Luc, 1D7 cells)
T2 sequence (P23945 18-695): T1 sequence (P23945 18-695)
The data set can be described thus: FSH receptor-dependent CRE-luciferase reporter gene assay (CHO FSH-R 6CRE-Luc, 1D7 cells). The conditions noted are these: for IC50: dose-response format in presence of EC50 of purified human FSH. The data set is classed as cell-based. The method, then: This procedure was used to identify and determine the relative potencies of human FSH receptor antagonists using a Chinese hamster ovarian cell line that stably produces the human FSH receptor and a luciferase reporter gene regulated by cAMP response elements.
The compounds were subsequently diluted in DMSO to working dilutions of 1 and 20 or 30 mM for 2-dose testing format and 1 μM-10 mM for dose-response format. The DMSO dilutions were diluted 500-fold in sterile growth medium [D-MEM/F-12 (GIBCO/BRL; Grand Island N.Y.) containing 15 mM HEPES, 2 mM 1-glutamine, pyridoxine hydrochloride, phenol red and 5% FetalClone II (HyClone Laboratories, Inc; Logan, Utah), 0.2% DMSO, 100 units penicillin G/ml, and 100 μg streptomycin sulfate/ml (GIBCO/BRL)]. The concentration of the vehicle in each of the compound dilutions was the same. POSITIVE CONTROLS: Purified human FSH (>98%) was purchased from Cortex Biochem, Inc. (San Leandro, Calif.) and a known FSH-R thiazolidinone antagonist was obtained from the Wyeth Research compound repository. Preparation of Cells
The CHO FSH-R 6CRE-Luc cells (1D7 cells) were obtained from Affymax (Palo Alto, Calif.). These Chinese hamster ovary cells (CHO-K1) were genetically engineered to stably express the recombinant human FSH receptor gene and a luciferase reporter gene under the regulation of 6 copies of a cAMP response element. The cells were plated one day prior to treatment into 96-well white opaque plates at a density of 50,000 cells/100 μl/well in growth medium. On the day of treatment, the growth medium was removed from the wells by aspiration and 50 µl of fresh growth medium was added to each well. The cells were incubated at 37° C. in a humidified incubator with 5% CO2/95% air.
The treated cells were incubated for 4 hours at 37° C. in a humidified incubator with 5% CO2/95% air. At the end of the incubation period, luciferase activity was measured by chemiluminescence using a commercially available kit (LucScreen, Tropix, Inc., Bedford, Mass.) according to the manufacturer's specifications, except that Buffer 1 and Buffer 2 were mixed together in equal proportion prior to the addition of 100 μl of the combined reagents to each well. Chemiluminescence was detected using a luminometer (EG & G Berthold Microlumat LB 96 P, Wallac, Gaithersburg, Md.) with chemiluminescence measured for 1 sec/well.
Background luminescence was measured for each well prior to the addition of the LucScreen reagent.
In the 96-well 2-dose format, each compound was tested in duplicate at each dose. […] One plate was used to test a maximum of 22 compounds.
The EC50 of purified human FSH alone was tested in triplicate with each test compound. The doses chosen to test each compound were extrapolated from the initial 2-dose screening process. Along with the test compounds, purified human FSH was also tested in a dose response (0.03, 0.1, 0.3, 1, 3, 10, and 30 ng/ml) for a positive control and quality control. One plate was used for 3 test compounds and the FSH positive control.
Luciferase activity is expressed as relative light units/sec/well. Luciferase activity in antagonist was compared to the appropriate negative and positive controls. For 2-dose testing, results are reported as luciferase activity and are expressed as % inhibition of the response obtained from the EC50 of FSH. For dose-response testing, results are reported as IC50 values. Data were analyzed statistically by one-way analysis of variance with appropriate weighting and transformation and relevant paired test as determined by Biometrics (Wyeth Research, Princeton, N.J.). IC50 values were calculated using the Stat/Excel program developed by Biometrics with appropriate weighting and transformation.

`COc1ccccc1-c1ccc(C(=O)N2Cc3ccc(C(=O)NCc4cccn4C)n3Cc3ccccc32)cc1` [Example 2, 10-[(2′-Methoxy-1,1′-biphenyl-4-yl)carbonyl]-N-[(1-methyl-1H-pyrrol-2-yl)methyl]-10,11-dihydro-5H-pyrrolo[2,1-c][1,4]benzodiazepine-3-carboxamide] gave a melting point of 148 to 150 °C. For the same molecule, at hFSH-R, the IC50 came to 1.2 µM and the Emax came to 79%. Further, on human FSH receptor, the IC50 came out at 42.6 µM.

In turn, `Cc1cc(CNC(=O)c2ccc3n2Cc2ccccc2N(C(=O)c2ccc(-c4c(C)cccc4C)c(C)c2)C3)no1` [Example 4, N-[(5-Methylisoxazol-3-yl)methyl]-10-[(2,2′,6′-trimethyl-1,1′-biphenyl-4-yl)carbonyl]-10,11-dihydro-5H-pyrrolo[2,1-c][1,4]benzodiazepine-3-carboxamide] yielded a melting point of 233 to 234 °C. Moreover, on human FSH receptor, the half-inhibitory concentration (IC50) is above 30 µM.

`COc1ccccc1-c1ccc(C(=O)N2Cc3ccc(C(=O)NCc4cc(C)on4)n3Cc3ccccc32)cc1` [Example 5, 10-[(2′-Methoxy-1,1′-biphenyl-4-yl)carbonyl]-N-[(5-methylisoxazol-3-yl)methyl]-10,11-dihydro-5H-pyrrolo[2,1-c][1,4]benzodiazepine-3-carboxamide] returned a melting point of 111 to 113 °C. Moreover, on hFSH-R, the IC50 stood at 0.6 µM and the Emax came to 96%. Besides, the IC50 on human FSH receptor stood at 10.2 µM.

`COc1ccccc1-c1ccc(C(=O)N2Cc3ccc(C(=O)NCc4cc(C)oc4C)n3Cc3ccccc32)cc1` [Example 6, N-[(2,5-Dimethyl-3-furyl)methyl]-10-[(2′-methoxy-1,1′-biphenyl-4-yl)carbonyl]-10,11-dihydro-5H-pyrrolo[2,1-c][1,4]benzodiazepine-3-carboxamide]: the IC50 on hFSH-R turned out to be 0.3 µM; on human FSH receptor, 3.3 µM. Also, the Emax at hFSH-R is 81%.

As for `COc1ccccc1-c1ccc(C(=O)N2Cc3ccc(C(=O)NCC4CN(Cc5ccccc5)CCO4)n3Cc3ccccc32)cc1` (centres unmarked) [Example 7, N-[(4-Benzylmorpholin-2-yl)methyl]-10-[(2′-methoxy-1,1′-biphenyl-4-yl)carbonyl]-10,11-dihydro-5H-pyrrolo[2,1-c][1,4]benzodiazepine-3-carboxamide], the melting point lay in the range of 180 to 182 °C. Also, the inhibition at 30 µM at human FSH receptor (2-dose format, test concentration 30 μM in parentheses, % inhibition of the response to EC50 of FSH) stood at 26%.

In turn, `Cc1cc(C(=O)N2Cc3ccc(C(=O)NCc4cccn4C)n3Cc3ccccc32)ccc1-c1c(C)cccc1C` [Example 8, N-[(1-Methyl-1H-pyrrol-2-yl)methyl]-10-[(2,2′,6′-trimethyl-1,1′-biphenyl-4-yl)carbonyl]-10,11-dihydro-5H-pyrrolo[2,1-c][1,4]benzodiazepine-3-carboxamide] had a melting point of 222 to 224 °C. Also, the half-maximal inhibitory concentration (IC50) on human FSH receptor was above 30 µM.

Turning to `COc1ccc(-c2nc(CNC(=O)c3ccc4n3Cc3ccccc3N(C(=O)c3ccc(-c5ccccc5C)c(C)c3)C4)no2)cc1` [Example 10, 10-[(2,2′-Dimethyl-1,1′-biphenyl-4-yl)carbonyl]-N-{[5-(4-methoxyphenyl)-1,2,4-oxadiazol-3-yl]methyl}-10,11-dihydro-5H-pyrrolo[2,1-c][1,4]benzodiazepine-3-carboxamide], the melting point was 133 to 135 °C.

In turn, `Cc1ccccc1-c1ccc(C(=O)N2Cc3ccc(C(=O)NCc4csc(-c5ccc(Cl)cc5)n4)n3Cc3ccccc32)cc1C` [Example 11, N-{[2-(4-Chlorophenyl)-1,3-thiazol-4-yl]methyl}-10-[(2,2′-dimethyl-1,1′-biphenyl-4-yl)carbonyl]-10,11-dihydro-5H-pyrrolo[2,1-c][1,4]benzodiazepine-3-carboxamide] came in with a melting point of 198 to 201 °C.

On to `Cc1ccccc1-c1ccc(C(=O)N2Cc3ccc(C(=O)NCC4CCCNC4)n3Cc3ccccc32)cc1C` (centres unmarked) [Example 12, 10-[(2,2′-Dimethyl-1,1′-biphenyl-4-yl)carbonyl]-N-(piperidin-3-ylmethyl)-10,11-dihydro-5H-pyrrolo[2,1-c][1,4]benzodiazepine-3-carboxamide], for which the IC50 on human FSH receptor is above 30 µM.
